# From patent US10975116B2, “Methods of treating and preventing gastrointestinal motility disorders using aminosterols” (Enterin, Inc., priority 2013, dated 2021)
# “And” between values parts separate entries of the source, which are not always exact repeats. Equal entries are not always repeated. “Also recorded” adds a separate entry of the source.
# Experiments:
# gastrointestinal tract = experiment: Aminosterol Induced GI Response after oral capsule in a human; type: in vivo
# Experimental: Gelatin capsules were prepared for oral administration. Capsules were coated in shellac to prevent their release within the stomach. Furthermore, because squalamine and related aminosterols have antibiotic activity, enteric coating prevents the drug from altering the microbial populations of the stomach. […] Squalamine dilactate powder, 99% pure, or 1436 hydrochloride, 99% pure, was added manually into either Size 0 (for the 200 mg dose) or Size 1 (for the 100 mg dose) gelatin capsules. No excipient was added. The capsules were coated twice in 5% shellac (80% acetone/20% ethanol) and dried before use.
# 200 mg of squalamine (lactate salt, excipient free) in a coated gelatin capsule was administered orally to a human in the morning on an empty stomach, with water. Squalamine was synthesized as described in Zasloff et al 2011. Within 2 hours nausea was experienced, lasting about 30 minutes. At 2.5 hours, increased peristalsis (“rumbling gut”) was experienced, lasting several minutes. At about 3 hours, a clear watery discharge of about 200 ml was passed rectally. A second episode occurred at 3.2 hours. Following this episode, bowel sounds quieted. No nausea or discomfort was subsequently experienced. Appetite was near normal. Despite normal feeding, feces were not passed for 2.5 days over which time no discomfort was experienced. The first feces passed after this quiescent period was soft and relatively small considering the intake of food and the time interval. Usual bowel functions resumed by about 4 days after squalamine administration.
# 200 mg of 1436 (HCl salt, excipients free) in a gelatin capsule was administered orally to a human in the morning on an empty stomach, with water. […] At 2 hours, about 100 ml of clear watery diarrhea, recurring at 2.75 hours, 3 hours, 3.25 hours, and 4 hours, with progressively lesser volumes of liquid discharged. First bowel movement was passed at 3.5 days, of normal consistency. The subject experienced no abdominal discomfort, bloating, etc over this period. Usual bowel functions resumed by about 4.5 days after administration of Aminosterol 1436. […]
# 100 mg of squalamine was orally administered in a capsule as in the first example. […] A period of “bowel quiet” was induced, however, that lasted 2 days, after which normally formed feces were passed.
# HIV = settings: tissue culture; cited from earlier work
# [1] = extensive studies in animals; cited from earlier work
# appetite and body weight = settings: cited from earlier work
# [2] = single 200 mg oral capsule, morning, empty stomach, one human
structure (smiles),measurement,setting,value
CC(C)[C@@H](CC[C@@H](C)[C@H]1CC[C@H]2[C@@H]3[C@H](O)C[C@H]4C[C@@H](NCCCNCCCCNCCCN)CC[C@]4(C)[C@H]3CC[C@]12C)OS(=O)(=O)O [Aminosterol 1436],duration of the Aminosterol-Induced GI Response,gastrointestinal tract; following a single 200 mg oral dose,about 4 days
same,"first clear watery rectal discharge / diarrhea, time after dosing",gastrointestinal tract; [2],2 h
same,"further episodes of watery discharge, time after dosing",gastrointestinal tract; [2],2.75 h and 3 h and 3.25 h and 4 h
same,"increased peristalsis, time after dosing",gastrointestinal tract; [2],≤ 1 h
same,"usual bowel functions resumed, time after administration",gastrointestinal tract; [2],about 4.5 days
same,volume of first clear watery discharge,gastrointestinal tract; [2],about 100 ml
same,time without feces / to first bowel movement after dosing,"gastrointestinal tract; single 200 mg oral capsule, morning, empty stomach, normal behavior about 1 passage every 24 hours",3.5 days
same,estimated reduction of small intestinal motility,"gastrointestinal tract; single 200 mg oral dose, versus normal about 1 passage every 24 hours",3.5 fold
same,antiviral activity,HIV,exhibits antiviral activity against HIV
same,absorption from the gastrointestinal tract,[1],neither squalamine nor Aminosterol 1436 can be absorbed to any extent
same,anorectic activity when administered orally,"appetite and body weight; oral, dogs and rodents",no anorectic activity
same,appetite and weight on parenteral administration,appetite and body weight; parenteral,potent appetite suppression and promotion of dose-dependent weight loss; also recorded: capable of inducing weight loss
